Laboratory results as given in patent US20250099431A1, “GLP-1R MODULATING COMPOUNDS” (priority 2020, published 2025).

Legend:
[1] = biological target: GLP-1R (Homo sapiens (Human), UniProt P43220); experiment: GLP-1R activation: cAMP increase in CHO cells stably expressing GLP-1R; format: cell-based; details: cAMP increase, 10 point dose response, 30 minutes incubation at 37° C., read-out: EC50
Protocol: GLP-1R activation by a compound of the present disclosure was quantified by measuring cAMP increase in CHO cells stably expressing GLP-1R (MultiSpan product #C1267-1a). […] The cells were then incubated overnight at 37° C., 5% CO2. […] 1% BSA (Rockland Immunochemicals product #BSA-1000)). Following the medium change, the cells were incubated for 1 hour at 37° C., 5% CO2. The tested GLP-1 compound was added to the cells in a 10 point dose response followed by a 30 minutes incubation at 37° C., 5% CO2. cAMP concentration increase was then detected using Cisbio's cAMP Gs Dynamic Kit (product #62AM4PEC) according to the manufacturer's protocol. The response was plotted against the log of the agonist concentration and fitted to a sigmoidal equation to determine the EC50.

[2] = Microsomal stability (liver microsomal assay, mixed cofactors); predicted hepatic clearance; format: in vitro ADME; details: liver microsomes 1.0 mg protein/mL (+UDPGA +NADPH), 1 μM analyte, 37° C.; scaled with human liver weight and hepatic blood flow 1.3 L/hr/kg
Protocol: Metabolic stability of compounds was assessed using human or rat liver microsomal assays (Corning). In these assays, 10 nL of each analyte at a concentration of 1 mM in 100% DMSO was dispensed into a well of a polypropylene plates using the Echo 550 acoustic liquid dispenser (Labcyte®). Each plate contained 384 wells with a single analyte in each well.
A solution of human (Corning® Gentest™ Human Mixed Pooled Microsomes or rat (Corning® Gentest™ Rat [Sprague-Dawley] Pooled Liver Microsomes) liver microsomes at 2 mg/ml in 100 mM K2HPO4/KH2PO4 at pH 7. 4 was combined with alamethicin from Trichoderma viride (Sigma-Aldrich) 0.0225 mg/ml. The mixture was incubated on ice for 15 minutes. 5 μL of this mixture was added to individual wells following a 15 minute incubation at room temperature and supplemented with 5 μL NADPH Regenerating Solution of cofactors (Corning® Gentest™ UGT Reaction Mix) containing 100 mM K2HPO4/KH2PO4 at pH 7.4, 2.6 mM NADP+, 6.6 mM glucose-6-phosphate, 6.6 mM MgCl2, 0.8 U/mL glucose-6-phosphate dehydrogenase, 0.1 mM sodium citrate, and 6.8 mM uridine diphosphate-glucuronic acid. The final concentration of each analyte compound at the beginning of the reaction was 1 μM. The reactions were incubated at 37° C. and samples were collected at time points of 0, 5, 15, 30, 40, 50, 60, and 70 minutes for further analysis. Background data were collected using reactions without analyte compounds.
Upon collection of the sample time points, samples were quenched with 30 μL of a solution of 72% acetonitrile, 8% methanol, 0.1% formic acid, 19.9% water, and internal standard (IS). Reaction plates were spun in a centrifuge at speed of 4,000 rcf for 30 minutes at 4° C., following a dilution of the 10 μL quenched reaction into 40 μL de-ionized water, yielding assay plates.
Assay plates were analyzed using solid-state extraction coupled with quadrupole time-of-flight mass spectrometer, using Agilent QToF 6530 RapidFire 360 system, with C4 type A solid state cartridges. Analysis was performed in either positive or negative ionization modes. Mobile phases contained 0.1% formic acid in water for loading analytes onto solid state extraction cartridges and 0.1% formic acid in acetonitrile for elution into a mass spectrometer in positive ionization mode, or 0.1% acetic acid in water for loading and 0.1% acetic acid in acetonitrile for extraction in negative ionization mode. Peak-area ratios of integrated counts for individual compounds to IS were plotted as semi-logarithmic chart of log vs time. The initial linear portion of decay was fitted to a linear regression equation to derive the half-time of analyte decay.
Pharmacological parameters for an analyte compound metabolism were calculated using the following equations: […]
wherein concentration refers to the protein concentration (mg/ml) in the reaction.
This scales the in vitro intrinsic clearance up to the value that would be predicted for the entire mass of liver tissue (but with no restriction by blood flow). The value depends upon the size of the liver (species-dependent) and the yield of microsomal protein as appropriate (assumed to be species-independent).
Hepatic clearance will depend upon the inter-relationship of intrinsic clearance and hepatic blood flow and was predicted from in vitro data using a variety of approaches.
The hepatic extraction is reported as the predicted clearance expressed as a proportion of hepatic blood flow.

Sequence of GLP-1R (P43220 24-463): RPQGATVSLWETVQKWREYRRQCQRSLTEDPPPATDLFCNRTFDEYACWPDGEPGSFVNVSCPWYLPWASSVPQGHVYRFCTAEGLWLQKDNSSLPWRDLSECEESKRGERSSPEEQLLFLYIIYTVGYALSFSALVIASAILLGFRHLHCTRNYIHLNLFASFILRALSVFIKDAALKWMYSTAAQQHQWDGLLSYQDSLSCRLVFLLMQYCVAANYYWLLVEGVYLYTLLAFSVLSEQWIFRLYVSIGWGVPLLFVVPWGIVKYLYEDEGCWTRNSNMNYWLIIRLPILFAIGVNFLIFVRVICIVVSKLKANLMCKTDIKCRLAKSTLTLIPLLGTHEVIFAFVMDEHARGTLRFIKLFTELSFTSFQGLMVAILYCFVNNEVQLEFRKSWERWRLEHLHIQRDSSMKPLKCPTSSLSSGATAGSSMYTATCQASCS

Row | SMILES | EC50 [1] [nM] | Predicted Hepatic Clearance (Pred. Cl.) [2] [mL/min/kg]
1 | COCCn1c(Cc2ccc(-c3cccc4c3OC(c3ccc(C#N)cc3F)O4)cc2F)nc2ccc(C(=O)O)cc21 (single isomer, unassigned) [Example 34] | 350 | 4.17
2 | COCCn1c(Cc2c(F)cc(-c3cccc4c3OC3(c5ccc(Cl)cc5)CCCN43)cc2F)nc2ccc(C(=O)O)cc21 (stereo not drawn) [Example 16, 2-(4-(3a-(4-chlorophenyl)-1,2,3,3a-tetrahydrobenzo[d]pyrrolo[2,1-b]oxazol-5-yl)-2,6-difluorobenzyl)-1-(2-methoxyethyl)-1H-benzo[d]imidazole-6-carboxylic acid] | 6920 | 9
3 | CC1(c2ccc(C#N)cc2F)Oc2cccc(-c3cc(F)c(Cc4nc5ccc(C(=O)O)cc5n4C[C@@H]4CCO4)c(F)c3)c2O1 (single isomer, unassigned) [Example 92] | 3.3 | 2.67
4 | CC1(c2ccc(Cl)cc2F)Oc2cccc(-c3cc(F)c(Cc4nc5ccc(C(=O)O)cc5n4CCOC(F)F)c(F)c3)c2O1 (stereo not drawn) [Example 83, 2-(4-(2-(4-chloro-2-fluorophenyl)-2-methylbenzo[d][1, 3]dioxol-4-yl)-2,6-difluorobenzyl)-1-(2-(difluoromethoxy)ethyl)-1H-benzo[d]imidazole-6-carboxylic acid] | 13 | 3.3
5 | COCCn1c(Cc2cc(F)c(-c3cccc4c3OC(c3ccc(C#N)cc3F)O4)cc2F)nc2ccc(C(=O)O)cc21 (single isomer, unassigned) [Example 40, 2-(4-(2-(4-cyano-2-fluorophenyl)benzo [d][1,3]dioxol-4-yl)-2,5-difluorobenzyl)-1-(2-methoxyethyl)-1H-benzo[d]imidazole-6-carboxylic acid] | 1230 | 5
6 | COCCn1c(Cc2cc(F)c(-c3cccc4c3OC(C)(c3ccc(Cl)cn3)O4)cc2F)nc2ccc(C(=O)O)cc21 (stereo not drawn) [Example 114, 2-[[4-[2-(5-chloro-2-pyridyl)-2-methyl-1,3-benzodioxol-4-yl]-2,5-difluoro-phenyl]methyl]-3-(2-methoxyethyl) benzimidazole-5-carboxylic acid] | – | 7.67
7 | COCCn1c(Cc2cc(F)c(-c3cccc4c3OC(C)(c3ccc(Cl)cc3F)O4)cc2F)nc2ccc(C(=O)O)cc21 (stereo not drawn) [Example 113, 2-[[4-[2-(4-chloro-2-fluoro-phenyl)-2-methyl-1,3-benzodioxol-4-yl]-2,5-difluoro-phenyl]methyl]-3-(2-methoxyethyl) benzimidazole-5-carboxylic acid] | – | 5.83
8 | COCCn1c(Cc2cc(-c3cccc4c3OC(C)(c3ccc(Cl)cc3F)O4)cs2)nc2ccc(C(=O)O)cc21 (stereo not drawn) [Example 59, 2-((4-(2-(4-chloro-2-fluorophenyl)-2-methylbenzo[d][1, 3]dioxol-4-yl)thiophen-2-yl)methyl)-1-(2-methoxyethyl)-1H-benzo[d]imidazole-6-carboxylic acid] | 1620 | –
9 | CC1(c2ccc(Cl)cc2F)Oc2cccc(-c3cc(F)c(Cc4nc5ccc(C(=O)O)cc5n4CCS(C)(=O)=O)c(F)c3)c2O1 (stereo not drawn) [Example 82, 2-[[4-[2-(4-chloro-2-fluoro-phenyl)-2-methyl-1,3-benzodioxol-4-yl]-2,6-difluoro-phenyl]methyl]-3-(2-methylsulfonylethyl) benzimidazole-5-carboxylic acid] | 20 | –
10 | CC1(c2ccc(Cl)cc2F)Oc2cccc(-c3ccc(Cc4nc5ccc(C(=O)O)cc5n4CC4(n5ccnn5)CC4)c(F)c3)c2O1 (stereo not drawn) [Example 51, 1-((1-(1H-1,2,3-triazol-1-yl)cyclopropyl)methyl)-2-(4-(2-(4-chloro-2-fluorophenyl)-2-methylbenzo[d][1, 3]dioxol-4-yl)-2-fluorobenzyl)-1H-benzo[d]imidazole-6-carboxylic acid] | – | 2.5
